Source: article PMC10590056, “Design and synthesis of cabotegravir derivatives bearing 1,2,3-triazole and evaluation of anti-liver cancer activity” (Frontiers in Pharmacology, 2023)
Values joined by “and” are separate entries in the source; they are usually repeats but may differ in a detail not shown here. Equal entries are not always repeated. Where two headings read alike, the source gives them in different places.

Experiments:
[1] = tested on: HepG2 cells; conditions: cited from earlier work
[2] = tested on: MCF-7 cells; assay: MTT assay for cell proliferation, MCF-7; assay type: cell-based; design: key to Inhibitory rate / Inhibition rate: inhibition rate = 1 - mean A490 sample/mean A490 control (fraction)
Protocol: (§1) HepG2, HeLa, MCF-7, and KYSE-30 cells were grown in a humidified incubator at 37°C with 5% CO2 in DMEM supplemented with 10% fetal bovine serum (FBS), […] streptomycin, and 100 U/mL penicillin.
(§2) When HepG2 cells reached 80% confluence, they were treated with 1 mL of trypsin and resuspended at a density of 10^5 cells/mL. Then, 100 μL of cell suspension was seeded into each well of a 96-well plate and incubated in a humidified atmosphere. The different concentrations of KJ-5 and KJ-12 (0, 1, 2, 4, 8, 16, and 32 μM) were added to each well, and the cells were further incubated for 48 h. Afterward, 20 μL of the MTT solution (5 mg/mL) was added to each well, and incubation was continued for another 4 h. The supernatant was discarded, and 200 μL of the DMSO solution was added to each well. The plate was shaken for 10 min in the dark. The absorbance values were measured at 490 nm using an enzyme-linked detector. The cell inhibition rate (%) was calculated using the following formula: (1-Mean A490 sample/Mean A490 control) × 100%.

[3] = tested on: HepG2 cells; assay: MTT assay for cell proliferation and cytotoxicity, HepG2; assay type: cell-based; design: key to Inhibitory rate: inhibition rate = 1 - mean A490 sample/mean A490 control (fraction)
Protocol: as §1, §2

[4] = tested on: KYSE-30 cells; assay: MTT assay for cell proliferation, KYSE-30; assay type: cell-based; design: key to Inhibitory rate: inhibition rate = 1 - mean A490 sample/mean A490 control (fraction); conditions: for Inhibitory rate: KYSE-30, given as fraction
Protocol: as §1, §2

[5] = tested on: HeLa cells; assay: MTT assay for cell proliferation, HeLa; assay type: cell-based; design: key to Inhibitory rate: inhibition rate = 1 - mean A490 sample/mean A490 control (fraction); conditions: Hela
Protocol: as §1, §2

[6] = tested on: wild-type lung cancer cells (A549); design: method as in Mao L. F. et al., 2020; conditions: A549, stronger effect than icotinib; ref Mao L. F. et al., 2020; cited from earlier work
[7] = tested on: mutant lung cancer cells (PC-9); design: method as in Mao L. F. et al., 2020; conditions: PC-9, stronger effect than icotinib; ref Mao L. F. et al., 2020; cited from earlier work
[8] = MCF-7, fraction, per experiment
[9] = HepG2, fraction, per experiment

## C[C@]12CC[C@@H]3c4ccc(O)cc4CC[C@H]3[C@@H]1CC[C@@]2(O)c1cn(CC(=O)c2ccc(Cl)cc2)nn1 [compound 2]
[1]; ref Queiroz et al., 2019, read-out: IC50 for HepG2 cells
  IC50: 17.8 µM

## COc1ccc(CN(C(=O)Cn2cc(COc3ccc4c(C)cc(=O)oc4c3)nn2)c2cc(OC)c(OC)c(OC)c2)cc1 [compound 1]
[1]; ref Fu et al., 2019, read-out: IC50 for the inhibition of HepG2 cells
  IC50: 1.71 µM

## O=C(NCc1cn(-c2ccc(I)cc2)nn1)Nc1ccc(Cl)c(C(F)(F)F)c1 [compound 4]
[1]; ref Chen et al., 2022a, Oekchuae et al., 2022, read-out: IC50 for HepG2 cells
  IC50: 5.57 µM

## Cc1c(C(=O)Nc2ccc(Oc3cccc4[nH]ccc34)c(F)c2)nnn1-c1ccc(F)cc1 [compound 3]
[1]; ref Wang L. et al., 2018, Chen et al., 2022b, read-out: IC50 for HepG2 cells
  IC50: 2.03 µM

## COc1c2n(cc(C(=O)Nc3cccc(-c4cn(-c5ccccc5F)nn4)c3)c1=O)C[C@H]1OC[C@H](C)N1C2=O [KJ-2]
[2]; [8]
  Inhibitory rate: 0.5009
  ODtreated/ODcontrol: 0.4991
[2]; given as fraction, second of three experiments
  Inhibitory rate: 0.4718
[2]; given as fraction, third of three experiments
  Inhibition rate: 0.4501
[2]; preliminary screening, MCF-7, 16 μM, 48 h, mean±SD, unit not given
  Inhibition rate (16μM), 48 h, MCF-7: 47.43±2.55
[2]; second of three experiments
  ODtreated/ODcontrol: 0.5282
[2]; third of three experiments
  ODtreated/ODcontrol: 0.5499
[3]; HepG2, 48 h, MTT
  IC50: 25.3 ± 2.07 µM
[3]; [9]
  Inhibitory rate: 0.513 and 0.5093 and 0.5087
  ODtreated/ODcontrol: 0.487 and 0.4907 and 0.4913
[3]; preliminary screening, HepG2, 16 μM, 48 h, mean±SD, unit not given
  Inhibition rate (16μM), 48 h, HepG2: 51.03±0.23
[4]; KYSE-30, first of three experiments
  ODtreated/ODcontrol: 0.5011
[4]; first of three experiments
  Inhibitory rate: 0.4989
[4]; second of three experiments
  Inhibitory rate: 0.4582
[4]; third of three experiments
  Inhibitory rate: 0.3717
[4]; KYSE-30, second of three experiments
  ODtreated/ODcontrol: 0.5418
[4]; KYSE-30, third of three experiments
  ODtreated/ODcontrol: 0.6283
[4]; preliminary screening, KYSE-30, 16 μM, 48 h, mean±SD, unit not given
  Inhibition rate (16μM), 48 h, KYSE-30: 44.92±6.50
[5]; fraction, per experiment
  Inhibitory rate: 0.497 and 0.5116 and 0.431
  ODtreated/ODcontrol: 0.503 and 0.4884 and 0.569
[5]; preliminary screening, 16 μM, 48 h, mean±SD, unit not given
  Inhibition rate (16μM), 48 h, Hela: 47.99±4.29

## Clc1cccc(-n2cc(-c3cccc(Nc4ncnc5cc6c(cc45)OCCOCCOCCO6)c3)nn2)c1 [compound 5]
[6]
  Inhibitory effect on A549 cells: excellent inhibitory effects
[7]
  Inhibitory effect on PC-9 cells: excellent inhibitory effects
